In patent publication US4857547A, “Novel HMG-CoA reductase inhibitors” (Merck & Co., Inc., priority 1988, dated 1989):

What follows are molecules tested against T1, HMG-CoA reductase (Rattus norvegicus, UniProt P51639) (assay: intrinsic HMG-CoA reductase inhibition, in vitro protocol (J. Med. Chem., 28, p. 347-358 (1985))). Details: compactin (mevastatin) assigned a value of 100; IC50 of test compound compared with that of mevastatin determined simultaneously.
T1 sequence (P51639 1-887): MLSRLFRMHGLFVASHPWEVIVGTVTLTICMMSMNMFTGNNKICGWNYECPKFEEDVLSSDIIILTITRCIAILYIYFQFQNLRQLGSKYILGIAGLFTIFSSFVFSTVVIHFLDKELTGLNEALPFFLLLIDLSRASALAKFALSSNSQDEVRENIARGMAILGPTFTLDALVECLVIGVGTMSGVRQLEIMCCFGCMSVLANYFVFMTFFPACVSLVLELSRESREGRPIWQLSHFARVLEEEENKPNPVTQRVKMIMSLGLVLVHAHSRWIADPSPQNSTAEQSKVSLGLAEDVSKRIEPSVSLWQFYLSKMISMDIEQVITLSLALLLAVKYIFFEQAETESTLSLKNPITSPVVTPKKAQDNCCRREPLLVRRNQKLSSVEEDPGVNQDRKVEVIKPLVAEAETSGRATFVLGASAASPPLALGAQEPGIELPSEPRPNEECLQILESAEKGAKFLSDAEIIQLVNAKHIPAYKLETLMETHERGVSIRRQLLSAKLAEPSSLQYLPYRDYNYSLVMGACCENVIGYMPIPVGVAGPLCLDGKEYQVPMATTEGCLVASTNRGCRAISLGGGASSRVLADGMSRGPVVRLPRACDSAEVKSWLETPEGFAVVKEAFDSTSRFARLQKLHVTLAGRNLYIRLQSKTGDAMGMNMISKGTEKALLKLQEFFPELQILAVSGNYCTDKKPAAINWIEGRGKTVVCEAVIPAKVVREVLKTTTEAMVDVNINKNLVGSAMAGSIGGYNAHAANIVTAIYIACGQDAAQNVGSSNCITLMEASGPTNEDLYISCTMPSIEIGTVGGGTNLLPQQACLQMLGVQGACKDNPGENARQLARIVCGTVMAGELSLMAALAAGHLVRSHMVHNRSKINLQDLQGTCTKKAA
Format: biochemical
Method: The intrinsic HMG-CoA reductase inhibition activity of the claimed compounds is measured in the in vitro protocol published in J. Med. Chem., 28, p. 347-358 (1985).
For estimation of relative inhibitory potencies, compactin (i.e., mevastatin) was assigned a value of 100 and the IC50 value of the test compound was compared with that of mevastatin (compactin) determined simultaneously in the published in vitro protocol.

Relative Potency | Compound
75 | CCC(C)(C)C(=O)O[C@H]1CC(CO)=CC2=CC[C@H](C)[C@H](CC[C@@H]3C[C@@H](O)CC(=O)O3)[C@H]21 [Example 1, 6(R)-[2-[8(S)-(2,2-dimethylbutyryloxy)-2(S)-methyl-6-hydroxymethyl-1,2,3,7,8,8a(R)-hexahydronaphthyl-1(S)]-ethyl]-4(R)-hydroxy-3,4,5,6-tetrahydro-2H-pyran-2-one]
100 | CCC(C)(C)C(=O)O[C@H]1CC(C(=O)O)=CC2=CC[C@H](C)[C@H](CC[C@@H]3C[C@@H](O)CC(=O)O3)[C@H]21 [Example 2, 6(R)-[2-[8(S)-(2,2-dimethylbutyryloxy)-2(S)-methyl-6-carboxy-1,2,3,7,8,8a(R)-hexahydronaphthyl-1(S)]-ethyl]-4(R)-hydroxy-3,4,5,6-tetrahydro-2H-pyran-2-one]
200 | CCC(C)(C)C(=O)O[C@H]1CC(COC(=O)Nc2ccccc2)=CC2=CC[C@H](C)[C@H](CC[C@@H]3C[C@@H](O)CC(=O)O3)[C@H]21 [Example 4, 6(R)-[2-[8(S)-(2,2-dimethylbutyryloxy)-2(S)-methyl-6-phenylaminocarbonyloxymethyl-1,2,3,7,8,8a(R)-hexahydronaphthyl-1(S)]-ethyl]-4(R)-hydroxy-3,4,5,6-tetrahydro-2H-pyran-2-one]
